Literature values, collected in patent US20120141398A1, “HAIR DYE CONTAINING ONE OR MORE EDIBLE OR COSMETIC COLORS” (priority 2010, published 2012).

Tests used:
large rat = conditions: text b11, species not given

Oc1cccc(O)c1 [Resorcinol]
median lethal dose (small rat; rat, in vivo): 200 mg/kg

Nc1ccccc1N [o-phenylenediamine]
Ames Test (mutagenicity) (Salmonella typhimurium): +

COc1ccc(N)cc1N [2,4 diaminoanisole]
Ames Test (mutagenicity) (Salmonella typhimurium): +

Nc1ccc(N)cc1 [p-phenylenediamine]
Ames Test (mutagenicity) (Salmonella typhimurium): + | median lethal dose (large rat): 80 mg/kg

Nc1ccccc1O [2-Aminophenol]
Median Lethal Dose/Kg (small rat; small rat): 800 g (small rat) g/Kg

Nc1cc([N+](=O)[O-])ccc1O [2-amino-4-nitrophenolate]
Ames Test (mutagenicity) (Salmonella typhimurium): +

Nc1ccc(OCCO)cc1[N+](=O)[O-] [4-amino-3-nitro-phenoxyethanol]
Ames Test (mutagenicity) (Salmonella typhimurium): +

CCc1ccc(N)cc1N [2,4-diamino-ethylbenzene]
Ames Test (mutagenicity) (Salmonella typhimurium): +

Nc1cccc(N)c1 [m-phenylenediamine]
Ames Test (mutagenicity) (Salmonella typhimurium): +
